These are literature values, as cited in US20210244731A1, “TABLET CONTAINING ANTITUMOR AGENT” (FUJIFILM Corporation, priority 2018, published 2021).

The target in this data set is T1, FLT3 (Homo sapiens, UniProt P36888).
T1 sequence (P36888 27-993): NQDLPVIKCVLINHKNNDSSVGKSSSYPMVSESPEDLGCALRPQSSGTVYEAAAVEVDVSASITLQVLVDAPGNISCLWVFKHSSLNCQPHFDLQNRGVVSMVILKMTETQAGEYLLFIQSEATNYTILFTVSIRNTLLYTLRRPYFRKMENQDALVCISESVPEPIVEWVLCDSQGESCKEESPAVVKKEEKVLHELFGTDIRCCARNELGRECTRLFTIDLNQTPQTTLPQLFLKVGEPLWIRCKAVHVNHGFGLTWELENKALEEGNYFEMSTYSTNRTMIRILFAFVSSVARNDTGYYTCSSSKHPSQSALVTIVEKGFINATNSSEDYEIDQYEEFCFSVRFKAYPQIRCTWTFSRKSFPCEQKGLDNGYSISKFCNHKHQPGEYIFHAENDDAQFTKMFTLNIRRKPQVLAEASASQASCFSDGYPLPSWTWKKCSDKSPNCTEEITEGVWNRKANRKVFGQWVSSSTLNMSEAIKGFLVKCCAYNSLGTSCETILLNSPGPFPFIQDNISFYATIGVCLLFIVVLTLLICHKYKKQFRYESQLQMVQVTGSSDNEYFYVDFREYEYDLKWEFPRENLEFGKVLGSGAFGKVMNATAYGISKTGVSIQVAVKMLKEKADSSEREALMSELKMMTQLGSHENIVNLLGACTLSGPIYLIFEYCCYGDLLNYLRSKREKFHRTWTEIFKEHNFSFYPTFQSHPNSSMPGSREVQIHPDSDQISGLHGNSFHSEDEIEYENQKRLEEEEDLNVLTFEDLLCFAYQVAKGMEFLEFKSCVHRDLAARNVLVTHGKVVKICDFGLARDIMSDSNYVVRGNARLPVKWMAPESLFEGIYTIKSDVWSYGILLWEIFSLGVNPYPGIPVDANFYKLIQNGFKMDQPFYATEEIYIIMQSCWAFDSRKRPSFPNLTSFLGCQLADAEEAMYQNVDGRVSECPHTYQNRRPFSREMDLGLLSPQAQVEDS
Conditions: statement of background, WO2015/056683A.

Take `CCCNc1nc(Nc2ccc(C#N)cc2)ncc1C#CCCCNC(=O)[C@H](C)N(C)C(=O)/C=C/CN(C)C` [Compound A, (S,E)-N-(1-((5-(2-((4-cyanophenyl)amino)-4-(propylamino)pyrimidin-5-yl)-4-pentyn-1-yl)amino)-1-oxopropan-2-yl)-4-(dimethylamino)-N-methyl-2-butenamide]: the FLT3 inhibitory action result is on record as “FLT3 inhibitory action”.
